Consider 9 compounds from patent US7105529B2, “Substituted oxindole derivatives as protein tyrosine and as protein serine/threonine kinase inhibitors and compositions and methods of treating chemotherapy and radiation therapy side effects” (SmithKline Beecham Corporation, priority 1997, dated 2006).

Some results are limits rather than exact numbers.

The test system of data set [1] is HDF normal diploid fibroblast cells. Put plainly: FACS assay (cell death), HDF. In kind it is cell-based. The following applies: 50% cell death, 72 h. On the procedure:
These assays allow determination of both cell death and changes in cell cycle profile in cells following treatment of the compound. The assay is performend as follows: • 1. Cells are incubated in DMEM to which 10% FCS has been added in a humidified incubator at 37° C. and 5% by volume of CO2 in air. The cells are innoculated in 6-well plates at a density of 0.5–5×10^5 cells per well. • 2. The test compound is added in serial dilutions 24–36 h after plating in 0.5% DMSO. The plates are then incubated a further 72 h in the presence of the compound. During this time, cells in control cultures undergo at least three cell divisions. • 3. After incubation, the media is collected and cells are harvested by trypsinization. The cells and media are pooled and pelleted by centrifugation. • 4. The cell pellet is fixed in a final volume of 3 mL of 50% ice cold MeOH and incubated for a minimum of 30 min at −20° C. • 5. The cells are pelleted by centrifugation and resuspended in 0.5 mL PBS containing 1%FCS, […] Propidium Iodide (PI) and 5 mg/mL RNase A and incubated 30 min at 37° C. in the dark. • 6. The samples are analysed by flow cytometry using the relative incorporation of PI as a measure of DNA content of each cell. The % Dead cells is recorded as % of events with less than 2N DNA. […] HDF are normal diploid fibroblast cells. RKO are colon adenocarcinoma cells and MES/SA are ovarian carcinoma cells.

Data set [2] concerns the target T1, c-fms (Homo sapiens, UniProt P07333).
T1 sequence (P07333 539-972 limits assumed): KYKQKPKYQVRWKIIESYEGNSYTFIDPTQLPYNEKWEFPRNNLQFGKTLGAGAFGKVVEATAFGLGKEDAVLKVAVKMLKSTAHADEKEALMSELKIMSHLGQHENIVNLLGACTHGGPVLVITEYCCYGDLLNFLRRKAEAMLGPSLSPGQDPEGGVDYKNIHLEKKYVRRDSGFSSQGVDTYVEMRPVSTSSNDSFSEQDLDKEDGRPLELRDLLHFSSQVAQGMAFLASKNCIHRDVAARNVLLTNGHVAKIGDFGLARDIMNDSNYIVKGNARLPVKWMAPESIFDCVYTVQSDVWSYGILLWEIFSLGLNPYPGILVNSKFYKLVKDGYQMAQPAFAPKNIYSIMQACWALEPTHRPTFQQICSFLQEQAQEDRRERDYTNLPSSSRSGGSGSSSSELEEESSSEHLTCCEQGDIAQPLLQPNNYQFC
Briefly: c-fms protein kinase assay (SPA). In kind it is biochemical. Particulars: Table 7, class symbols; read-out: c-fms kinase inhibition IC50. On the procedure: c-fms protein kinase assays utilized the peptide substrate, biotin-[…]-NH2, as the phosphoryl group acceptor. The c-fms intracellular domain was expressed from a baculovirus expression system, as an amino-terminal GST fusion protein, and purified to homogeneity using Glutathione agarose from Sigma Chemical Co. Maximum activation of the enzyme was achieved by preactivation at room temperature for 120 min in the presence of 100 μM ATP and 15 mM MgCl2, This enzyme stock was diluted to 150 nM prior to using in the assay. Typically assays were performed in white, opaque, 96-well plates in a 45 ul assay volume including 15 ul 6% DMSO, with or without compounds, 15 ul of the preactivated, diluted enzyme, and 15 ul of a substrate mixture. Reactions contained 50 mM HEPES, pH 7.5, 1.7 μM ATP, 15 mM MgCl2, 3 μM peptide, 2.5 mM DTT, 50 mM NaCl and 0.15 uCi/assay [^32P]ATP. The controls were reactions in the presence (negative controls) or absence (positive controls) of 50 mM EDTA. Reactions were allowed to proceed for 90 min at room temperature. The reaction products were quantified using Scintillation Proximity technolgy. […] Plates were sealed and counted in a Packard Topcount scintillation counter. […]

Data set [3] deals with HDF normal diploid fibroblast cells. Briefly: MTT assay, HDF. The class given is cell-based. Particulars: Fibroblast, 72 h. On the procedure: Compounds are tested for their ability to inhibit cell proliferation and cell viability. The metabolic conversion of 3-(4,5-dimethylthiazol-2-yl)-2,5-diphenyltetrazolium bromide (MTT, Sigma #M2128) to a reduced form is a commonly used measure of cellular viability. Following is the procedure: Cells are maintained in 75 cm^2 tissue culture flasks until ready for use. The cells are grown and plated for the assay in Dulbecco's modified Eagle's media (DMEM) containing 10% fetal bovine serum. For example, the following cell lines can be used: a) human foreskin fibroblasts (HFF); b) HT29 (human colon carcinoma cell line); c) MDA-MB468 (human breast carcinoma cell line); d) RKO (human colon adenocarcinoma cell line); e) SW620 (human colon carcinoma cell line); f A549 (human lung carcinoma cell line); and g) MIA PACA (human pancreatic carcinoma cell line). Cells are maintained at 37° C. in 10% CO2, 90% humidified air. Cells are plated in 96-well tissue culture plates at the densities listed below. 100 μL of cell suspension is added to each well of the 96-well plate except the top row of the plate which contains no cells and serves as a reference for the spectrophotometer. [table] Cells are incubated overnight in DMEM containing 10% fetal bovine serum at 37° C. in 10% CO2, 90% humidified air prior to dosing. […] Compounds with solubilities of less than 30 μM are dosed at the highest soluble concentration. Stock solutions of compounds are made in 100% dimethyl sulfoxide (DMSO). Stock solutions are diluted in DMEM containing 100 μg/ml gentamicin and 0.3 to 0.6% DMSO at the twice the highest concentration to be placed on the cells. If compounds have been dissolved in DMSO the final concentration of DMSO on the cells is kept below 0.3%. Three-fold serial dilutions are performed on each compound to prepare 10 concentrations of the compound for dosing. 100 μl of diluted compound is added to the 100 μl of media currently on the dish. For each concentration of compound, 2–4 replicate wells are prepared. Cells are returned to incubator and allowed to proliferate in the presence of compound for 72 h before addition of MTT. […] After 4 h incubation the media, compound and MTT mixture is aspirated from the plates and 100 μl of 100% DMSO is added to each well in addition to 25 μl of Sorenson's Buffer (0.1M glycine, 0.1M NaCl, pH 10.5). Quantitation of metabolic reduction of MTT in each plate is performed by reading optical density at 570 nm wavelength on a Molecular Devices UVmax microplate reader. […] HDF are normal diploid fibroblast cells. RKO are colon adenocarcinoma cells and MES/SA are ovarian carcinoma cells.

For data set [4], the target named is CDK2 (Homo sapiens, UniProt P24941). Briefly: CDK2 substrate phosphorylation assay. The class given is biochemical.
Protocol: CDK1 and CDK2 were both expressed utilizing a baculovirus expression system and were partially purified to comprise 20–80% of total protein, with no detectable competing reactions present. […] Reactions were terminated with 0.2–2 volumes of either 20% acetic acid or 50–100 mM EDTA buffered to pH 7 (substrate consumption <20%). The buffer employed in enzyme assays was either 30 mM HEPES 7.4 containing 0.15 M NaCl and 5% DMSO, the buffer 50 mM MOPS 7.0 containing 0.15 M NaCl and 5% DMSO, or the buffer 100 mM HEPES pH 7.5 containing 0.1 mg/mL BSA and 5% DMSO. Inhibitors were diluted in 100% DMSO prior to addition into the assay. Detection of peptide phosphorylation was accomplished by scintillation counting following either collection of peptide onto phosphocellulose filters (for reactions stopped with acetic acid), collection of peptide in wells of 96 well plates coated with Streptavidin (Pierce) (reactions were stopped with EDTA), or addition of Avidin coated Scintillant impregnated beads (Scintillation Proximity Assays from Amersham, reactions were stopped with EDTA).
CDK1 and CDK2 were both expressed utilizing a baculovirus expression system and were partially purified to comprise 20–80% of total protein, with no detectable competing reactions present. […]
For data set [5], the system named is etoposide-induced alopecia. Put plainly: Protection from chemotherapy-induced alopecia in rat pups. The class given is in vivo, Sprague-Dawley rat. The following applies: 6 mg/kg etoposide intraperitoneally. Here is the method:
Protection from chemotherapy-induced alopecia is determined in 7 day old Sprague-Dawley rat pups. The treatment is carried out by administering the compounds topically to the head of the animal in doses from 0.01 to 10 mg/kg 2 h before and 2 h after the administration of a single dose of 6 mg/kg etoposide intraperitoneally. Six days after dosing, animals are scored visually for hair loss using a grading scale from 1 (complete hair loss) to 4 (no apparent hair loss). In this assay, the prior treatment of the animal with the compound of this invention results in a marked reduction in the severity of alopecia compared to vehicle treated controls. Under the above described conditions of treatment, the compounds of the present invention also protect against other toxicities of etoposide. […] Animals treated with the compounds of the present invention in combination with etoposide, in the schedule indicated above, gain weight normally and even exceed the body weight of control, untreated animals.

`CCC(C)Cc1cccc2c1C(=NNc1ccc(S(N)(=O)=O)cc1)C(=O)N2` (stereo not drawn) [Example 11] came in with a concentration for half-maximal inhibition (IC50) in data set [1] of more than 5 µM.

In the case of `O=C1Nc2ccc3ncccc3c2/C1=C/Nc1ccc(CCO)cc1` [Example 32], the IC50 in data set [2] is more than 0.1 µM.

Regarding `CN(C)S(=O)(=O)c1ccc(NC=C2C(=O)Nc3ccc(-c4cnco4)cc32)cc1` [Example 35], the half-inhibitory concentration (IC50) in data set [1] and in data set [3] was more than 5 µM each time. `CS(=O)(=O)Cc1ccc(NC=C2C(=O)Nc3ccc4ncsc4c32)cc1` [Example 76, 8-(4-Methylsulfonylmethyl-phenylamino-methylene)-6,8-dihydro-1-thia-3,6-diaza-as-indacen-7-one]: the half-maximal inhibitory concentration (IC50) in data set [1] and in data set [3] was more than 5 µM in each case. As to `CC(C)(CO)CNS(=O)(=O)c1ccc(NC=C2C(=O)Nc3ccc4ncsc4c32)cc1` [Example 77, N-(3-Hydroxy-2,2-dimethyl-propyl)4-[(7-oxo-6,7-dihydro-1-thia-3,6-diaza-as-indacen-8-ylidenemethyl)-amino]-benzenesulfonamide], the 50% inhibitory concentration (IC50) in data set [1] and in data set [3] was more than 5 µM in each case. For `CNS(=O)(=O)Cc1ccc(NN=C2C(=O)Nc3cc(C)c(O)c(C)c32)cc1` [Example 99], the IC50 in data set [4] was 0.051 to 0.1 µM; in data set [1] it was more than 5 µM; in data set [3], 0.6 to 1 µM. With `O=C1Nc2ccc3ncsc3c2C1=CNc1ccc2nn[nH]c2c1` [Example 101, 8-(3H-Benzotriazol-5-ylaminomethylene)-6,8-dihydro-1-thia-3,6-diaza-as-indacene-7-one], the IC50 in data set [1] and in data set [3] was more than 5 µM each time. Regarding `CC(C)COC(=O)c1ccc2c(c1)C(=CNc1ccc(S(N)(=O)=O)cc1)C(=O)N2` [Example 103, 2-Oxo-3-(4-sulfamoyl-phenylamino-methylene)-2,3-dihydro-1H-indole-5-carboxylic acid isobutyl ester], the concentration for half-maximal inhibition (IC50) in data set [3] was 1.1 to 5 µM. As to `COc1cc([C@@H]2c3cc4c(cc3[C@@H](O[C@@H]3O[C@@H]5CO[C@@H](C)O[C@H]5[C@H](O)[C@H]3O)[C@H]3COC(=O)[C@H]23)OCO4)cc(OC)c1O` [etoposide], the “body weight gain, etoposide alone compared to untreated animals” value in data set [5] is listed as “dramatic lack of weight gain”.
